Test results as given in US8293506B2, “L-cysteine-producing bacterium and a method for producing L-cysteine” (Ajinomoto Co., Inc., priority 2009, dated 2012).

What was measured:
[1] = test system: wild-type strains (E. coli BW25113); experiment: Screening of Keio collection on LB agar containing cysteine; format: cell-based, Escherichia coli; conditions: overnight at 37° C.
Description: The 3,985 clones of the Keio collection were cultured at 37° C. for 15 hours in 0.5 ml of LB liquid medium. This culture medium was stamped on LB agar media containing cysteine at different concentrations (0, 15, 20, 25 mM), and culture was performed overnight at 37° C. Clones that were cysteine sensitive at the growth inhibition concentration of cysteine for wild-type strains (20 mM) were visually selected. […] A dsbA gene-deficient strain was obtained as a clone showing particularly strong and distinctive cysteine sensitivity among the above candidates.

[2] = test system: dsbA-deficient strain JW3832/pCA24; experiment: Growth test on L agar medium containing cysteine, dsbA-deficient strain; format: cell-based, Escherichia coli; conditions: L agar with 10, 15, 20 mM cysteine, 37° C. overnight; FIG. 1
Source text: (§1) Since a dsbA-deficient strain was obtained by the screening of the Keio Collection, growth of the gene-deficient strain was observed on the agar medium containing cysteine of different concentrations in order to analyze the sensitivity of that strain to cysteine in more detail. Furthermore, as for the to/C gene (Japanese Patent Application No. 2008-040167, Wiriyathanawudhiwong, N. et al., Appl. Microbiol. Biotechnol. (2009) 81:903-913), which was previously obtained in a similar manner, and of which deletion is known to induce cysteine sensitivity, a similar experiment was performed by using a to/C-deficient strain. The dsbA-deficient strain and to/C-deficient strain used in this experiment were JW3832 strain and JW5503 strain, respectively (both were included in the Keio collection), and their parent strain was the BW25113 strain (Andreas Haldimann, A. and Wanner, B. L., J. Bacteriol., 2001 November, 183 (21):6384-6393). The plasmids carrying the dsbA gene and the to/C gene for the complementation experiment were pDsbA and pTo1C (ASKA clone (Kitagawa, M., et al., 2005, DNA Res., 12:291-299)), and the vector used as the base of them was pCA24 (vector for ASKA clone (Kitagawa, M., et al., 2005, DNA Res., 12:291-299)). […]

[3] = test system: to/C-deficient strain JW5503/pCA24; experiment: Growth test on L agar medium containing cysteine, tolC-deficient strain; format: cell-based, Escherichia coli; conditions: L agar with 10, 15, 20 mM cysteine, 37° C. overnight; FIG. 1
Source text: as §1

[4] = target: T1, DsbA protein (Escherichia coli, UniProt P0AEG4); experiment: Oxidized and reduced states of DsbA protein (AMS modification, Western blotting); format: cell-based; conditions: wild-type strain, 5 mM cysteine, 20 minutes; FIG. 2
T1 construct: endogenous in cells; host or cells: E. coli BW25113 (wild-type strain, also with pYdeD)
T1 sequence (P0AEG4 20-208): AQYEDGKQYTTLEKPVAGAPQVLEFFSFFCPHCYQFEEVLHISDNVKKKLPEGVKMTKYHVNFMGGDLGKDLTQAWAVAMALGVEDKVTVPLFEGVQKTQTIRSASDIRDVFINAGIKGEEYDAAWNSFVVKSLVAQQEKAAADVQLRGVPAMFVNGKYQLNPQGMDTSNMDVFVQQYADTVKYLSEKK
Source text: The strains used in this experiment were the E. coli BW25113 strain (Andreas Haldimann and Barry L. Wanner, J. Bacteriol., 2001 November, 183 (21):6384-6393) as a wild-type parent strain, the dsbA-deficient JW3832 strain and dsbB-deficient JW5182 strain derived from BW25113 strain (Baba, T, et al., 2006, Mol. Syst. Biol., 2:2006.0008). As a plasmid carrying the dsbB gene, pDsbB (ASKA clone, Kitagawa, M. et al., 2005, DNA Res., 12:291-9) was used.
In order to distinguish the oxidized state and the reduced state of the DsbA protein, the protein was modified with AMS (4-acetamido-4′-maleimidyl-stilbene-2,2′-disulfonate) (Kadokura, H. et al., 2004, Science, 303, 534-537). Each of the wild-type strain, the dsbA-deficient strain, the dsbB-deficient strain, the wild-type strain +pYdeD and the dsbB-deficient strain +pDsbB was cultured overnight at 30° C. in 3 ml of LB medium, and the resulting culture was used as a preculture medium. The preculture medium was inoculated into the LB medium in a 1% amount, and culture was performed at 30° C. with shaking until OD660 reached 0.4 to 0.5. […]
The labeled protein was then separated by non-reduced SDS gel electrophoresis (12.5%), and then detected by Western blotting. […] The label was detected by using ECL Plus Western Blotting Detection Reagents (Amersham).

[5] = test system: OstA protein; experiment: Oxidized and reduced states of OstA protein (AMS modification, Western blotting); format: cell-based, Escherichia coli; conditions: wild-type strain with pmyc-OstA, 5 mM L-cysteine; FIG. 3
Source text: Since it was elucidated that the reduced type DsbA was accumulated by cysteine (reduction stress), it was decided to investigate toxicity of cysteine and oxidized and reduced states of a protein in the periplasm. The OstA is a protein in the periplasm indispensable to growth, and requires disulfide bond formed by DsbA. In order to investigate the oxidized and reduced states of the OstA protein, the E. coli BW25113 strain as the wild-type parent strain and the dsbA-deficient JW3832 strain derived from the BW25113 strain were used, and the plasmid pmyc-OstA for expressing OstA fused with an Myc tag (Kadokura, H. et al., 2004, Science, 303, 534-537) was introduced into them. Under the same culture conditions as those of the aforementioned experiment for investigating the oxidized and reduced states of DsbA, addition of L-cysteine (final concentration: 5 mM) and modification of the protein with AMS (4-acetamido-4′-maleimidyl-stilbene-2,2′-disulfonate) were performed, and the OstA protein was detected by Western blotting. As the antibody, anti-Myc (mouse) was used in this experiment.

N[C@@H](CS)C(=O)O [cysteine, L-cysteine]
growth inhibition concentration of cysteine for wild-type strains [1]: 20 mM | cysteine sensitivity (growth) compared with control strain BW25113/pCA24 [2]: marked cysteine sensitivity | cysteine sensitivity (growth) compared with control strain BW25113/pCA24 [3]: marked cysteine sensitivity | DsbA-DsbB complex after exposure to cysteine [4]: markedly accumulated | oxidized/reduced state of DsbA after exposure to cysteine [4]: the reduced type DsbA accumulated | oxidized/reduced state of OstA after addition of cysteine [5]: the reduced type accumulated
